The test system of the test is OK6>SCA1 flies. Nature of the test: Chemical therapy on hSCA1 Drosophila: lifespan on medium supplemented with CHK1 inhibitor. The class given is in vivo. Particulars: adult flies. The procedure: FIG. 29 is a graph showing the results of a lifespan analysis of OK6>SCA1 flies fed on media supplemented with a CHK1 inhibitor (CHIR-124). The statistical analysis of the average values of the lifespan was performed by log-rank test.
A CHK1-specific inhibitor, CHIR-124 (manufactured by AXON MEDCHEM), was dissolved at 5 mg/mL in 1N hydrogen chloride and diluted to multiple concentrations with 0.05 N solution. Note that the medium used here was a 1:1 mixture of Instant Drosophila medium D7670 (manufactured by Sigma Aldrich) and Formula 4-24 Instant Drosophila medium (manufactured by Calolina). As a control, a medium to which an equal amount of 0.05 N hydrogen chloride solution was added was also prepared.
In this respect, whether or not the inhibition of a signal mediated by CHK1 mitigates the lifespan shortening in the SCA1 fly model was examined. Specifically, a CHK1-specific inhibitor (CHIR-124) was used. This inhibitor was added to feed (corn-meal medium) at multiple concentrations, and adult flies were fed on the feed. As a result, the lifespan of OK6>SCA1 was improved at 0.00016 mg/mL and 0.02 mg/mL (see FIG. 29). In addition, the improvement effect was more remarkable in an example where the inhibitor was given at a higher concentration. The lifespan of the flies treated with CHIR-124 at 0.02 mg/mL was elongated by 35% (see FIG. 29).

SMILES strings stand for the structures. “Also recorded” adds a separate entry of the source.

For `O=c1[nH]c2ccc(Cl)cc2c(N[C@@H]2CN3CCC2CC3)c1-c1nc2ccccc2[nH]1` [CHIR-124, 4-[((3S)-1-azabicyclo[2.2.2]oct-3-yl)amino]-3-(1H-benzimidazol-2-yl)-6-chloroquinolin-2(1H)-one], under “0.00016 mg/mL in feed”, the “lifespan of OK6>SCA1” value is “improved”. Moreover, under “0.02 mg/mL in feed”, the lifespan elongation was determined as 35% and the “lifespan of OK6>SCA1” value is reported as “ameliorated the lifespan-shortening; also recorded: improved”.

Source of the values: patent US10989719B2, “Methods for treating spinocerebellar ataxia type I using RPA1” (National University Corporation Tokyo Medical and Dental …, priority 2013, dated 2021).
